The values that follow come from patent publication US11672799B2, “1,4-disubstituted pyridazine quinolne analogs there of and methods for treating SMN-deficiency-related conditions” (Novartis AG, priority 2013, dated 2023).

Each structure is given as a SMILES string. Like-named read-outs stand apart in the source and are kept apart here.

As a reminder, the EC50 is the concentration at which the effect is half-maximal.

The assay relates to SMN protein. Briefly: cellular SMN ELISA (SMN protein elevation) in myoblast cell line from SMNdelta7 mouse model. The class given is cell-based. On the procedure:
A cellular SMN ELISA was used to measure the effects of low molecular weight compounds on SMN protein elevation. Cells from a myoblast cell line derived from the SMNdelta7 mouse model (kind gift from Steve Burden, NYU) were seeded into a 384-well plate at a density of 3000 cells/well and treated with compounds for 24 hours. ELISA capture plates were prepared by coating 384-well plates (Immulon 4HBX) with 0.5 ug/mL of anti-SMN mAb (BD Science, Catalog number 610647) at 4° C. overnight. The plates were washed 5 times with 110 uL of PBS-Tween (0.05% Tween-20, PBST), blocked with 100 uL of 1% BSA in PBST for 2 hours and washed (5 times) with 100 uL of PBST. After 24 hours of compound treatment cells were lysed in a modified RIPA-buffer, on ice for 1 hour. 20 uL of lysate and 20 uL of 1% BSA were then added to the ELISA capture plates and incubated at 4° C. overnight. Plates were washed (5 times) with PBST and then incubated with 1:100 dilution of primary rabbit anti-SMN polyclonal antibody (Santa cruz, Catalog number SC-15320) at room temperature for 1 hour and subsequently washed (5 times) with 110 uL of PBST. This was followed by addition of 1:100 Goat anti-Rabbit IgG-HRP linked (Cell Signaling, Catalog number 7074) secondary antibody for 1 hour. Plates were then washed with PBST and incubated with 40 uL TMB substrate (Cell Signaling, Catalog number 7004 L) at room temperature for 1-10 minutes with shaking. The reaction was stopped by addition of 40 uL of stop solution (Cell signaling, Catalog number 7002 L) and absorption was measured at 450 nm. Data was reported as fold activation over DMSO control, and EC50.
ELISA assay condition 1: compound concentration range 20 nM-10 uM; ELISA assay condition 2: compound concentration 100 pM-10 uM. Data generated in Biological Example 1 using ELISA conditions 1 or 2.
(In general: In an ELISA, binding on a coated surface is turned into a signal by an enzyme label.)

Where [1] appears, read: Biological Example 1, SMN ELISA, SMNdelta7 mouse myoblasts, 24 hours compound treatment.
The mark [2] stands for this setting: Biological Example 1, SMN ELISA, SMNdelta7 mouse myoblasts, 24 hours compound treatment, read-out: SMN Activity (EC50).
Setting [3] is: comparison of unsubstituted, ortho-hydroxy and ortho-alkoxy pyridazines, as in Biological Example 1.
Setting [4] is: comparison of unsubstituted, ortho-hydroxy and ortho-alkoxy pyridazines, as in Biological Example 1, read-out: SMN ELISA EC50.

For the molecule `CN(c1ccc(-c2cc3nccnc3cc2O)nn1)C1CC(C)(C)NC(C)(C)C1` [Example 13-1, 7-(6-(methyl(2,2,6,6-tetramethylpiperidin-4-yl)amino)pyridazin-3-yl)quinoxalin-6-ol], the “SMN Activity (fold activation over DMSO control)” value under setting [1] is 2.7 fold. Further, the EC50 by setting is: under setting [2], 9 nM; under setting [4], 9 nM. Under setting [3], the Fold activation is 2.7 —.
`Cc1cc(C2CC2)c2cc(-c3ccc(N(C)C4CC(C)(C)NC(C)(C)C4)nn3)c(O)cc2n1` [Example 20-3, 4-cyclopropyl-2-methyl-6-(6-(methyl(2,2,6,6-tetramethylpiperidin-4-yl)amino)pyridazin-3-yl)quinolin-7-ol]: the “SMN Activity (fold activation over DMSO control)” value under setting [1] turned out to be 2.72 fold. Besides, the EC50 under setting [2] stood at 65 nM.
The like results for `CN(c1ccc(-c2cc3c(cc2O)c(=O)ccn3C)nn1)C1CC(C)(C)NC(C)(C)C1` [Example 17-1, 6-hydroxy-1-methyl-7-(6-(methyl(2,2,6,6-tetramethylpiperidin-4-yl)amino)pyridazin-3-yl)quinolin-4(1H)-one] were, in that order, 2.56 fold and 685 nM.
`CN(c1ccc(-c2cc3c(=O)n(C)ccc3cc2O)nn1)C1CC(C)(C)NC(C)(C)C1` [Example 35-1, 6-hydroxy-2-methyl-7-(6-(methyl(2,2,6,6-tetramethylpiperidin-4-yl)amino)pyridazin-3-yl)isoquinolin-1(2H)-one]: under setting [1], the “SMN Activity (fold activation over DMSO control)” value is listed as 2.43 fold. Besides, the EC50 under setting [2] is 3 nM.
Turning to `CN(c1ccc(-c2cc3cccnc3cc2O)nn1)C1CC(C)(C)NC(C)(C)C1` [Example 1-1, 6-(6-(Methyl(2,2,6,6-tetramethylpiperidin-4-yl)amino)pyridazin-3-yl)quinolin-7-ol], the “SMN Activity (fold activation over DMSO control)” value under setting [1] is recorded as 2.9 fold. In addition, the EC50 by setting is: under setting [2], 20 nM; under setting [4], 20 nM. Also, the Fold activation under setting [3] amounted to 2.9.
`CN(c1ccc(-c2cc3cncnc3cc2O)nn1)C1CC(C)(C)NC(C)(C)C1` [Example 23-1, 6-(6-(methyl(2,2,6,6-tetramethylpiperidin-4-yl)amino)pyridazin-3-yl)quinazolin-7-ol]: the “SMN Activity (fold activation over DMSO control)” value under setting [1] was determined as 3.6 fold. Further, the EC50 under setting [2] turned out to be 41 nM.
With `Cc1cc(C#N)c2cc(-c3ccc(N(C)C4CC(C)(C)NC(C)(C)C4)nn3)c(O)cc2n1` [Example 20-2, 7-hydroxy-2-methyl-6-(6-(methyl(2,2,6,6-tetramethylpiperidin-4-yl)amino)pyridazin-3-yl)quinoline-4-carbonitrile], the “SMN Activity (fold activation over DMSO control)” value under setting [1] amounted to 2.68 fold. Moreover, under setting [2], the EC50 came out at 48 nM.
For `Cc1cnc2cc(-c3ccc(N(C)C4CC(C)(C)NC(C)(C)C4)nn3)c(O)c(Br)c2c1` [Example 16-1, 5-bromo-3-methyl-7-(6-(methyl(2,2,6,6-tetramethylpiperidin-4-yl)amino)pyridazin-3-yl)quinolin-6-ol], in that order: 2.44 fold and 258 nM.
With `Cc1cnc2cc(-c3ccc(N(C)C4CC(C)(C)NC(C)(C)C4)nn3)c(O)cc2n1` [Example 18-3, 3-methyl-7-(6-(methyl(2,2,6,6-tetramethylpiperidin-4-yl)amino)pyridazin-3-yl)quinoxalin-6-ol], the “SMN Activity (fold activation over DMSO control)” value under setting [1] stood at 2.72 fold. In addition, the EC50 under setting [2] came to 16 nM.
The like results for `CN1C[C@@H]2CN(c3ccc(-c4cc5cccnc5cc4O)nn3)C[C@@H]2C1` [Example 1-3, 6-(6-((3aR,6aS)-5-methylhexahydropyrrolo[3,4-c]pyrrol-2(1H)-yl)pyridazin-3-yl)quinolin-7-ol] were, in that order, 2.5 fold and 255 nM.
For `CN(c1ccc(-c2cc3cc(O)cnc3cc2O)nn1)C1CC(C)(C)NC(C)(C)C1` [Example 7-6, 6-(6-(methyl(2,2,6,6-tetramethylpiperidin-4-yl)amino)pyridazin-3-yl)quinoline-3,7-diol], the “SMN Activity (fold activation over DMSO control)” value under setting [1] was 2.9 fold. For the same molecule, the EC50 under setting [2] is 300 nM.
For `CCOc1cc2nccnc2cc1-c1ccc(N(C)C2CC(C)(C)NC(C)(C)C2)nn1` [drawing 139 R = OEt, 6-(7-Ethoxyquinoxalin-6-yl)-N-methyl-N-(2,2,6,6-tetramethylpiperidin-4-yl)pyridazin-3-amine], the “SMN ELISA EC50” value under setting [3] was “Inactive”.
Take `CN(c1ccc(-c2cc3nccc(Cl)c3cc2O)nn1)C1CC(C)(C)NC(C)(C)C1` [Preparation 13, 4-chloro-7-(6-(methyl(2,2,6,6-tetramethylpiperidin-4-yl)amino)pyridazin-3-yl)quinolin-6-ol]: the “SMN Activity (fold activation over DMSO control)” value under setting [1] came out at 2.6 fold. In addition, under setting [2], the EC50 amounted to 7 nM.
With `COc1ccnc2cc(-c3ccc(N(C)C4CC(C)(C)NC(C)(C)C4)nn3)c(O)cc12` [Example 12-1, 4-methoxy-7-(6-(methyl(2,2,6,6-tetramethylpiperidin-4-yl)amino)pyridazin-3-yl)quinolin-6-ol], the “SMN Activity (fold activation over DMSO control)” value under setting [1] was determined as 2.4 fold. For the same molecule, the EC50 under setting [2] worked out at 3 nM.
`CN(c1ccc(-c2ccc3ncccc3c2)nn1)C1CC(C)(C)NC(C)(C)C1` [drawing 135 R = H] had a Fold activation under setting [3] of 2.2. For the same molecule, under setting [4], the EC50 came out at 660 nM.
For `Cc1cc(C2COC2)c2cc(-c3ccc(N(C)C4CC(C)(C)NC(C)(C)C4)nn3)c(O)cc2n1` [Example 20-6, 2-methyl-6-(6-(methyl(2,2,6,6-tetramethylpiperidin-4-yl)amino)pyridazin-3-yl)-4-(oxetan-3-yl)quinolin-7-ol], the “SMN Activity (fold activation over DMSO control)” value under setting [1] is reported as 3.18 fold. The EC50 under setting [2] is 165 nM.
Regarding `Cc1cc(C2=CCOCC2)c2cc(-c3ccc(N(C)C4CC(C)(C)NC(C)(C)C4)nn3)c(O)cc2n1` [Example 20-4, 4-(3,6-dihydro-2H-pyran-4-yl)-2-methyl-6-(6-(methyl(2,2,6,6-tetramethylpiperidin-4-yl)amino)pyridazin-3-yl)quinolin-7-ol], the “SMN Activity (fold activation over DMSO control)” value under setting [1] is given as 2.72 fold. Further, under setting [2], the EC50 is 166 nM.
For `CCOc1cc(C)nc2cc(O)c(-c3ccc(N(C)C4CC(C)(C)NC(C)(C)C4)nn3)cc12` [Example 10-5, 4-Ethoxy-2-methyl-6-(6-(methyl(2,2,6,6-tetramethylpiperidin-4-yl)amino)pyridazin-3-yl)quinolin-7-ol], in that order: 3.3 fold and 20 nM.
For `CN(c1ccc(-c2cc3cc(Br)cnc3cc2O)nn1)C1CC(C)(C)NC(C)(C)C1` [Example 7-2, 3-bromo-6-(6-(methyl(2,2,6,6-tetramethylpiperidin-4-yl)amino)pyridazin-3-yl)quinolin-7-ol], in that order: 2.6 fold and 8 nM.
Take `Cc1nc2cc(O)c(-c3ccc(N(C)C4CC(C)(C)NC(C)(C)C4)nn3)cc2nc1C` [Example 18-1, 2,3-dimethyl-7-(6-(methyl(2,2,6,6-tetramethylpiperidin-4-yl)amino)pyridazin-3-yl)quinoxalin-6-ol]: the “SMN Activity (fold activation over DMSO control)” value under setting [1] is listed as 3.24 fold. The EC50 under setting [2] came out at 15 nM.
For `CN(c1ccc(-c2cc3cccnc3cc2O)nn1)C1CC(C)(C)N(C)C(C)(C)C1` [Example 1-2, 6-(6-(methyl(1,2,2,6,6-pentamethylpiperidin-4-yl)amino)pyridazin-3-yl)quinolin-7-ol], in that order: 2.4 fold and 340 nM.
On to `CN(c1ccc(-c2cc3cc(C4CCOCC4)cnc3cc2O)nn1)C1CC(C)(C)NC(C)(C)C1` [Example 14-1, 6-(6-(methyl(2,2,6,6-tetramethylpiperidin-4-yl)amino)pyridazin-3-yl)-3-(tetrahydro-2H-pyran-4-yl)quinolin-7-ol], for which the “SMN Activity (fold activation over DMSO control)” value under setting [1] is reported as 2.91 fold. For the same molecule, under setting [2], the EC50 stood at 63 nM.
For `COc1ccnc2cc(O)c(-c3ccc(N(C)C4CC(C)(C)NC(C)(C)C4)nn3)cc12` [Example 19-1, 4-methoxy-6-(6-(methyl(2,2,6,6-tetramethylpiperidin-4-yl)amino)pyridazin-3-yl)quinolin-7-ol], in that order: 2.65 fold and 10 nM.
For `CN(c1ccc(-c2cc3c(O)nccc3cc2O)nn1)C1CC(C)(C)NC(C)(C)C1` [Example 3-6, 7-(6-(methyl(2,2,6,6-tetramethylpiperidin-4-yl)amino)pyridazin-3-yl)isoquinoline-1,6-diol], in that order: 2.43 fold and 8 nM.
